# Results taken from patent US7915012B2, “Methods for screening for inhibitors of TRPV2 activation” (Korea University Industry and Academic Collaboration …, priority 2008, dated 2011).
# Key:
# trigeminal neurons [1] = experiment: Calcium imaging of cultured trigeminal neurons; format: cell-based, ICR mice
# Experimental: Trigeminal ganglia were dissected out of decapitated adult ICR mice in cold PBS and treated with 1.5 mg/ml of collagenase/dispase (Roche Diagnostics, USA) at 37° for 45 min, and then treated with 0.25% trypsin (Invitrogen, USA) for 15 min. The trigeminal neurons prepared thereby were then plated onto poly-L-lysinecoated coverslips in DMEM/F12 containing 10% FBS, 1% penicillin/streptomycin and 5 ng/ml of 2.5S NGF (Invitrogen, USA), followed by culture in a CO2 incubator for 48-72 hours.
# Calcium imaging was performed with a confocal microscope (LSM5 Pascal, Carl Zeiss, Germany), and time-lapse images (excitation 488 nm/emission 514 nm) were collected every 3 seconds using Carl Zeiss ratio tool software (Carl Zeiss, Germany).
# The trigeminal neurons prepared by the same manner as described in Example 2 were delayed-treated with 100 μM probenecid or 4 kinds of TRP activators: TRPM8 activator menthol 400 μM, TRPA1 activator cinnamaldehyde (MP Biomedicals, USA) 300 μM, TRPV1 activator capsaicin (Sigma-Aldrich, USA) 2 μM and TRPV1-3 activator 2-APB 300 μM.
# The trigeminal neurons prepared by the same manner as described in Example 2 were treated with 300 μM 2-APB+100 μM probenecid, 300 μM 2-APB+2 μM capsaicin, 300 μM 2-APB+300 μM cinnamaldehyde+2 μM capsaicin, 300 μM 2-APB +2 μM capsaicin +100 μM probenecid, 300 μM 2-APB +400 μM menthol and 300 μM 2-APB, respectively.
# rTRPV2 = molecular target: T1, rTRPV2 (Rattus norvegicus, UniProt Q9WUD2, A713V/L151P/T158I); experiment: Whole-cell voltage-clamp recording in TRPV2 transfected HEK293T cell line; format: cell-based
# T1 construct: expressed in transfected cells; host or cells: HEK293T (ATCC CRL-11268)
# T1 sequence (Q9WUD2 1-761 L151P/T158I/A713V): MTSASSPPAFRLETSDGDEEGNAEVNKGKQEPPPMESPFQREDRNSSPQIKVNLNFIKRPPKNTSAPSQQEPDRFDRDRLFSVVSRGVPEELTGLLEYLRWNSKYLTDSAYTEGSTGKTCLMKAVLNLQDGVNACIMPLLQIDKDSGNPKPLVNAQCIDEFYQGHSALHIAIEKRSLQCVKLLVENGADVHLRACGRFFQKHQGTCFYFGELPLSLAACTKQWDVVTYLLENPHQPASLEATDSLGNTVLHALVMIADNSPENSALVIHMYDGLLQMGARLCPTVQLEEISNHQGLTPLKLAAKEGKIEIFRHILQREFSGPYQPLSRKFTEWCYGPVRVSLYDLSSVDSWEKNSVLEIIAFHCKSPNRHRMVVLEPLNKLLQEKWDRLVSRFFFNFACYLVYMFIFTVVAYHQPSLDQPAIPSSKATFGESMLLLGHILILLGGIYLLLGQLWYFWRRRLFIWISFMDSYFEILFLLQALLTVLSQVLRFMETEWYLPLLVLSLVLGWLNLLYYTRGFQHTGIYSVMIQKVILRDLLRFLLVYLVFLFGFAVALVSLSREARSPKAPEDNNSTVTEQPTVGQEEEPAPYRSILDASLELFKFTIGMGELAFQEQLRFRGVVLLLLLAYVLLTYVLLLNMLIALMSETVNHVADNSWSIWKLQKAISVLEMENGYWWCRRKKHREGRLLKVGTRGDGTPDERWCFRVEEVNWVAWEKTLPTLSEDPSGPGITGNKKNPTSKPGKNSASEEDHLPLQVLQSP
# Experimental: HEK293T cell line (ATCC CRL-1 1268) was transiently transfected with plasmid DNA containing polynucleotide encoding […] (SEQ. ID. NO: 1), rTRPV2 (SEQ. ID. NO: 2), mTRPV3 (SEQ. ID. NO: 3), rTRPV4 (SEQ. ID. NO: 4), mTRPM8 (SEQ. ID. NO: 5) or mTRPA1 (SEQ. ID. NO: 6).
# Particularly, the HEK293T cell line was transiently transfected with individual TRP channel plasmid (pcDNA3.1 containing polynucleotide encoding rTRPV1, rTRPV2, mTRPV3, rTRPV4, mTRPM8 or mTRPA1), and 600 ng/well of pCDNA3 (Invitrogen Corp., USA; containing green fluorescent protein (GFP) cDNA) using Fugene6 (Roche Diagnostics, USA) according to manufacturer's instruction. The transformed cells were cultured in DMEM/F12 containing 10% FBS and 1% penicillin/streptomycin in a CO2 incubator for 24 hours. The cells were replated onto poly-L-lysine-coated glass coverslips, followed by further culture for 10-24 hours.
# The TRPV2 transfected cell line prepared in Example 1 was treated with 100 μM probenecid (Sigma-Aldrich, USA) and 300 μM 2-APB (2-aminoethoxydiphenyl borate; Cayman Chemical, USA), respectively. Stock solutions were made using water, DMSO or ethanol, and were diluted with test solutions before use.
# Whole-cell voltage-clamp recording, one of the patch-clamp techniques, was performed with the transfected cell line of Example <1-1> according to the method of Bandel M, et al. (Neuron 41:849-857, 2004).
# Particularly, the extracellular solution (140 mM NaCl, 5 mM KCl, 2 mM CaCl2, 1 mM MgCl2, 10 mM HEPES; titrated to pH 7.4 with NaOH) and the pipette solution (140 mM CsCl, 5 mM EGTA, 10 mM HEPES, 2.0 mM MgATP, 0.2 mM NaGTP; titrated to pH 7.2 with CsOH) were used. The potential was held at −60 mV for 250 ms, voltage-ramp pulsed from −80 mV to +80 mV for […] and returned to −60 mV for 250 ms, which was repeated without intersweep. This experiment was repeated 5 times.
# The TRPV2 transfected cell line prepared by the method of Example 1 was treated with 100 μM probenecid, 100 μM probenecid+20 μM ruthenium red (Sigma-Aldrich, USA) and 300 μM 2-APB, respectively. […]
# trigeminal neurons [2] = experiment: Whole-cell voltage-clamp recording in trigeminal neurons; format: cell-based, ICR mice; conditions: 20 μM ruthenium red + 100 μM probenecid
smiles,measurement,setting,value
"NCCOB(c1ccccc1)c1ccccc1 [2-APB, 2-aminoethoxydiphenyl borate]","neurons sensitive to 2-APB, share of the total neurons",trigeminal neurons [1]; 300 μM 2-APB,46.8%
same,neurons with probenecid-induced calcium influx that responded to 2-APB,"trigeminal neurons [1]; 300 μM 2-APB, 100 μM probenecid",59 out of 60
same,whole cell current (TRPV2 activation),rTRPV2; 300 μM 2-APB,equal response
COc1cc(CNC(=O)CCCC/C=C/C(C)C)ccc1O [capsaicin],share of probenecid-sensitive neurons that responded to capsaicin,"trigeminal neurons [1]; 2 μM capsaicin, 100 μM probenecid",7.7%
same,share of the 2-APB-sensitive group that responded to capsaicin,"trigeminal neurons [1]; 2 μM capsaicin, 300 μM 2-APB",40.2%
N.N.N.N.N.N.N.N.N.N.N.N.N.N.[Cl-].[Cl-].[Cl-].[Cl-].[Cl-].[Cl-].[O-2].[O-2].[Ru+3].[Ru+3].[Ru+4] [ruthenium red],inhibition of probenecid induced currents in trigeminal neurons,trigeminal neurons [2],inhibited
same,inhibition of probenecid induced current response,rTRPV2; 20 μM ruthenium red + 100 μM probenecid,inhibited
